T1: OATP1B1*5 (Homo sapiens, UniProt Q9Y6L6, V174A)
T1 sequence (Q9Y6L6 1-691 V174A): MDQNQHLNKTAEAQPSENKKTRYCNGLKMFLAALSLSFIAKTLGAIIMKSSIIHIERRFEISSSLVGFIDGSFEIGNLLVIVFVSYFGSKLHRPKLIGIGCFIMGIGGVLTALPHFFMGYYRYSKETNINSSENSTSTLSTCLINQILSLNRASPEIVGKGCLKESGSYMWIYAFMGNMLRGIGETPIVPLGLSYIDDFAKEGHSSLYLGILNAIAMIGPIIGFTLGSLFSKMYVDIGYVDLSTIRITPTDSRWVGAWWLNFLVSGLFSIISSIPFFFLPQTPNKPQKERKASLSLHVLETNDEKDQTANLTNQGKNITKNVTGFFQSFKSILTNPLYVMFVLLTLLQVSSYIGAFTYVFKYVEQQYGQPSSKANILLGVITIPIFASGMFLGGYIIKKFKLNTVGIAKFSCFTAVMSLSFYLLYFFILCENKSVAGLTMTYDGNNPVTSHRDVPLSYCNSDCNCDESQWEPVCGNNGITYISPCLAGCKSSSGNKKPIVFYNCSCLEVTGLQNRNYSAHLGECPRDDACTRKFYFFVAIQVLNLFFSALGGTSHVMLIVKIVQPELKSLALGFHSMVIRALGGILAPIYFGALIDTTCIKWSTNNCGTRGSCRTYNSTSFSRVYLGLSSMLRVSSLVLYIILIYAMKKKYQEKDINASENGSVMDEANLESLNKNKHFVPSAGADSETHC

T2: OATP1B1*1a (Homo sapiens, UniProt Q9Y6L6)
T2 sequence (Q9Y6L6 1-691): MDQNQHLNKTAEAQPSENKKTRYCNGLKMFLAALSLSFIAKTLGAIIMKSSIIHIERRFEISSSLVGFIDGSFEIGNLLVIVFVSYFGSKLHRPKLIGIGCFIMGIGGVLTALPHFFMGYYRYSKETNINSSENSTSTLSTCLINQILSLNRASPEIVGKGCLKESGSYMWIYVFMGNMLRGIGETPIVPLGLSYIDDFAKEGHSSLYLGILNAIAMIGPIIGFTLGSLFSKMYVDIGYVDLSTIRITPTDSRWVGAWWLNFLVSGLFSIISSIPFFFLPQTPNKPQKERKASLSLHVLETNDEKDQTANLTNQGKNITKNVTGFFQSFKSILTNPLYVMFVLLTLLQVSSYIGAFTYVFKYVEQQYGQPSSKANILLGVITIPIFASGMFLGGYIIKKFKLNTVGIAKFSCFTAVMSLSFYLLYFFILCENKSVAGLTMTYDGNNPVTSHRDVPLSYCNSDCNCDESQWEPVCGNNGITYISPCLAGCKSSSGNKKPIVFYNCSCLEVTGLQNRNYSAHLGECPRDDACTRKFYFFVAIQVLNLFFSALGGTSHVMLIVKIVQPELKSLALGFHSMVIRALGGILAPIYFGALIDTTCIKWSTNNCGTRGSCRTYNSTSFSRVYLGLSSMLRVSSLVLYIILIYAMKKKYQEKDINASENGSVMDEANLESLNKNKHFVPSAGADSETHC


Assays:
[1] = molecular target: T1, OATP1B1*5; assay: inhibition of rosuvastatin uptake in OATP1B1*5-HEK293T cells, LC/MS; type: cell-based
[2] = molecular target: T2, OATP1B1*1a; assay: inhibition of rosuvastatin uptake in OATP1B1*1a-HEK293T cells, LC/MS; type: cell-based
[3] = substrate: CC(C)c1nc(N(C)S(C)(=O)=O)nc(-c2ccc(F)cc2)c1/C=C/[C@@H](O)C[C@@H](O)CC(=O)O; assay: concentration-dependent uptake kinetics; type: cell-based, Homo sapiens

IC50 [1]	IC50 [2]	Molecule	Km [3]
6.07 ± 0.57 µM	6.25 ± 0.42 µM	C[C@H]1[C@H](C)CC[C@]2(C(=O)O)CC[C@]3(C)C(=CC[C@@H]4[C@@]5(C)CC[C@H](O)C(C)(C)[C@@H]5CC[C@]43C)[C@H]12 [UA, 3b-hydroxy-urs-12-en-28-oic-acid]	
		OATP1B1*1a (Homo sapiens) (protein) MDQNQHLNKTAEAQPSENKKTRYCNGLKMFLAALSLSFIAKTLGAIIMKSSIIHIERRFEISSSLVGFIDGSFEIGNLLVIVFVSYFGSKLHRPKLIGIGCFIMGIGGVLTALPHFFMGYYRYSKETNINSSENSTSTLSTCLINQILSLNRASPEIVGKGCLKESGSYMWIYVFMGNMLRGIGETPIVPLGLSYIDDFAKEGHSSLYLGILNAIAMIGPIIGFTLGSLFSKMYVDIGYVDLSTIRITPTDSRWVGAWWLNFLVSGLFSIISSIPFFFLPQTPNKPQKERKASLSLHVLETNDEKDQTANLTNQGKNITKNVTGFFQSFKSILTNPLYVMFVLLTLLQVSSYIGAFTYVFKYVEQQYGQPSSKANILLGVITIPIFASGMFLGGYIIKKFKLNTVGIAKFSCFTAVMSLSFYLLYFFILCENKSVAGLTMTYDGNNPVTSHRDVPLSYCNSDCNCDESQWEPVCGNNGITYISPCLAGCKSSSGNKKPIVFYNCSCLEVTGLQNRNYSAHLGECPRDDACTRKFYFFVAIQVLNLFFSALGGTSHVMLIVKIVQPELKSLALGFHSMVIRALGGILAPIYFGALIDTTCIKWSTNNCGTRGSCRTYNSTSFSRVYLGLSSMLRVSSLVLYIILIYAMKKKYQEKDINASENGSVMDEANLESLNKNKHFVPSAGADSETHC	19.87 ± 5.96 µM
		OATP1B1*5 (Homo sapiens; V174A) (protein) MDQNQHLNKTAEAQPSENKKTRYCNGLKMFLAALSLSFIAKTLGAIIMKSSIIHIERRFEISSSLVGFIDGSFEIGNLLVIVFVSYFGSKLHRPKLIGIGCFIMGIGGVLTALPHFFMGYYRYSKETNINSSENSTSTLSTCLINQILSLNRASPEIVGKGCLKESGSYMWIYAFMGNMLRGIGETPIVPLGLSYIDDFAKEGHSSLYLGILNAIAMIGPIIGFTLGSLFSKMYVDIGYVDLSTIRITPTDSRWVGAWWLNFLVSGLFSIISSIPFFFLPQTPNKPQKERKASLSLHVLETNDEKDQTANLTNQGKNITKNVTGFFQSFKSILTNPLYVMFVLLTLLQVSSYIGAFTYVFKYVEQQYGQPSSKANILLGVITIPIFASGMFLGGYIIKKFKLNTVGIAKFSCFTAVMSLSFYLLYFFILCENKSVAGLTMTYDGNNPVTSHRDVPLSYCNSDCNCDESQWEPVCGNNGITYISPCLAGCKSSSGNKKPIVFYNCSCLEVTGLQNRNYSAHLGECPRDDACTRKFYFFVAIQVLNLFFSALGGTSHVMLIVKIVQPELKSLALGFHSMVIRALGGILAPIYFGALIDTTCIKWSTNNCGTRGSCRTYNSTSFSRVYLGLSSMLRVSSLVLYIILIYAMKKKYQEKDINASENGSVMDEANLESLNKNKHFVPSAGADSETHC	10.05 ± 4.02 µM

Source: article PMC4142139 (European Journal of Drug Metabolism and Pharmacokinetics, 2014)
